{
  "source": "patent US20140259191A1",
  "about": "“FISH ANESTHETIC AND METHOD” (AQUA-MOR TECHNOLOGIES LTD., priority 2011, published 2014)",
  "system": "common carp",
  "experiment": "Five-hour sedation of common carp, linalool versus 2-phenoxyethanol",
  "assay_type": "in vivo",
  "conditions": "linalool 40 ppm, 2-PE 200 ppm; for Number of fish exhibiting loss of upright position: 26° C.",
  "method": "2-Phenoxyethanol (2-PE) is used to sedate fish in vaccinations procedures for relatively long periods of time (3 hours). 35 common carp were placed in each of two 60-liter tanks containing water at 26° C. Into one tank was added linalool (in a formulation as described in Example 28) to a concentration of 40 ppm; into the other tank was added 2-PE to a concentration of 200 ppm. Sedation of fish was determined by observation of loss of upright position, operculum movement and response to stimulus (handling). Total exposure time was five hours, at the end of which the fish were transferred 60-liter recovery tanks containing untreated water.",
  "data": [
    {"smiles": "OCCOc1ccccc1", "note": "[2-phenoxyethanol, 2-Phenoxyethanol, reference compound]", "values": [
      {"measurement": "Number of fish exhibiting loss of upright position", "setting": "35 common carp per tank, time 10:30 (start), aeration", "value": 0},
      {"measurement": "Number of fish exhibiting loss of upright position", "setting": "35 common carp per tank, time 11:00 (start 10:30), no aeration", "value": 1},
      {"measurement": "Number of fish exhibiting loss of upright position", "setting": "35 common carp per tank, time 11:40 (start 10:30), no aeration", "value": 2},
      {"measurement": "Number of fish exhibiting loss of upright position", "setting": "35 common carp per tank, time 12:35 (start 10:30), no aeration", "value": 2},
      {"measurement": "Number of fish exhibiting loss of upright position", "setting": "35 common carp per tank, time 13:35 (start 10:30), no aeration", "value": 2},
      {"measurement": "Number of fish exhibiting loss of upright position", "setting": "35 common carp per tank, time 14:30 (start 10:30), aeration", "value": 2},
      {"measurement": "Number of fish exhibiting loss of upright position", "setting": "35 common carp per tank, time 15:30 (start 10:30), aeration", "value": "None"},
      {"measurement": "survival at transfer to recovery tank", "setting": "35 common carp per tank, after five hours exposure", "value": "All alive"},
      {"measurement": "reflex response over the 5 hours of exposure", "setting": "common carp", "value": "reduced substantially from the beginning of the trial and increased with the passage of time until the end of the trial"},
      {"measurement": "sedative effect between 3 and 5 hours of exposure", "setting": "common carp", "value": "reduced"},
      {"measurement": "recovery after placement in a recovery tank", "setting": "common carp, after five hours exposure", "value": "recovered quickly in few minutes and did not show signs of stress"},
      {"measurement": "response to external stimulation during the first 3 hours", "setting": "common carp, sedation levels enabled handling", "value": "did not respond to external stimulation"}
    ]}
  ]
}
